Literature values, collected in PMC6854850 (MicrobiologyOpen, 2019).

Biological target: T1, OmpP (Escherichia coli, UniProt P34210)
T1 sequence (P34210 24-315): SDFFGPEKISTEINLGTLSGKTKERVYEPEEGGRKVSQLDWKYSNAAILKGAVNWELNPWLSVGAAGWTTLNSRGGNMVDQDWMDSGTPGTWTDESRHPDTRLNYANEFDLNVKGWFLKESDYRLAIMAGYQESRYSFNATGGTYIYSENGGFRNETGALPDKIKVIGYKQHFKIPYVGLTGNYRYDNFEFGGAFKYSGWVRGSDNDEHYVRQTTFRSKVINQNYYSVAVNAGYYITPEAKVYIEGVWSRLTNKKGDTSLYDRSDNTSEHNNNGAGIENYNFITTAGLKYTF
Conditions: ref Hwang et al., 2007

cleavage of AMP by OmpP, in words: has been shown to cleave
Substance: protamine
